System: MDA-MB-231 multicell spheroids, viability
Assay: Anticancer human tumor MDA-MB-231 cell line growth inhibition [PI3K];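 note: spheroids exposed to agents for seven days before reading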;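 for viability, T/C: percent of vehicle control luminescence with DMSO treated spheroids as 100%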
Settings: for IC50: curve of first compound; for viability, T/C: stronger effect = lower value
Procedure, shortened: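 Multi-cell spheroids combine tumor cells with HUVEC and human MSCs, treated with targeted agents alone or with inavolisib, alpelisib, duvelisib or copanlisib. Concentrations fall in half-log steps from at or near clinical Cmax, or from 10 microM where Cmax is unknown; viability read-out.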

IC50 (second compound 0.00316 µM): 2.62 µM
IC50 (second compound 0.01 µM): 2.08 µM
IC50 (second compound 0.0316 µM): 1.04 µM
IC50 (second compound 0.1 µM): < 0.0316 µM
IC50 (second compound 0.316 µM): < 0.0316 µM
IC50 (second compound 1 µM): < 0.0316 µM
SMILES: Cn1ncc(Cl)c1-c1cc(C(=O)NC(CN)Cc2cccc(F)c2)sc1Cl (configuration not stated) + COc1c(OCCCN2CCOCC2)ccc2c3n(c(=NC(=O)c4cnc(N)nc4)nc12)CCN3
viability, T/C (second compound 0.00316 µM, first compound 0.0316 µM): 99.2%
viability, T/C (second compound 0.00316 µM, first compound 0.1 µM): 93.8%
viability, T/C (second compound 0.00316 µM, first compound 0.316 µM): 84.5%
viability, T/C (second compound 0.00316 µM, first compound 1 µM): 72%
viability, T/C (second compound 0.00316 µM, first compound 3.16 µM): 44.6%
viability, T/C (second compound 0.00316 µM, first compound 10 µM): 25.7%
viability, T/C (second compound 0.01 µM, first compound 0.0316 µM): 78.6%
viability, T/C (second compound 0.01 µM, first compound 0.1 µM): 83.1%
viability, T/C (second compound 0.01 µM, first compound 0.316 µM): 74.2%
viability, T/C (second compound 0.01 µM, first compound 1 µM): 63.7%
viability, T/C (second compound 0.01 µM, first compound 3.16 µM): 42.3%
viability, T/C (second compound 0.01 µM, first compound 10 µM): 25.4%
viability, T/C (second compound 0.0316 µM, first compound 0.0316 µM): 60.2%
viability, T/C (second compound 0.0316 µM, first compound 0.1 µM): 61.5%
viability, T/C (second compound 0.0316 µM, first compound 0.316 µM): 60.8%
viability, T/C (second compound 0.0316 µM, first compound 1 µM): 48.9%
viability, T/C (second compound 0.0316 µM, first compound 3.16 µM): 34.8%
viability, T/C (second compound 0.0316 µM, first compound 10 µM): 19.6%
viability, T/C (second compound 0.1 µM, first compound 0.0316 µM): 48.2%
viability, T/C (second compound 0.1 µM, first compound 0.1 µM): 47.5%
viability, T/C (second compound 0.1 µM, first compound 0.316 µM): 46%
viability, T/C (second compound 0.1 µM, first compound 1 µM): 40.7%
viability, T/C (second compound 0.1 µM, first compound 3.16 µM): 29.9%
viability, T/C (second compound 0.1 µM, first compound 10 µM): 17.4%
viability, T/C (second compound 0.316 µM, first compound 0.0316 µM): 32.5%
viability, T/C (second compound 0.316 µM, first compound 0.1 µM): 33.6%
viability, T/C (second compound 0.316 µM, first compound 0.316 µM): 29.9%
viability, T/C (second compound 0.316 µM, first compound 1 µM): 29.2%
viability, T/C (second compound 0.316 µM, first compound 3.16 µM): 20.9%
viability, T/C (second compound 0.316 µM, first compound 10 µM): 13.9%
viability, T/C (second compound 1 µM, first compound 0.0316 µM): 25.8%
viability, T/C (second compound 1 µM, first compound 0.1 µM): 24.8%
viability, T/C (second compound 1 µM, first compound 0.316 µM): 24.4%
viability, T/C (second compound 1 µM, first compound 1 µM): 23.4%
viability, T/C (second compound 1 µM, first compound 3.16 µM): 22.2%
viability, T/C (second compound 1 µM, first compound 10 µM): 20.8%

— PubChem BioAssay AID1963958 (Molecular Pharmacology Branch, DTP, NCI, 2024)
